Earlier results in US20040223971A1, “Composition and uses of galectin antagonists” (GlycoGenesys, Inc., priority 2003, published 2004).

Assays:
[1] = tested on: galectin-3 transfected BT549 cells
BT549 cells = BT549 cells without detectable galectin-3

In the case of `O=c1c(-c2ccc(O)cc2)coc2cc(O)cc(O)c12` [genistein], the “cell cycle arrest / apoptosis” value [1] is listed as “cell cycle arrest at the G(2)/M phase takes place without apoptosis induction” and the apoptosis induction (BT549 cells) is listed as “effectively induces apoptosis”.
